Consider 8 compounds from ChEMBL document CHEMBL5303304, “EUbOPEN Chemogenomics Library - IncuCyte” (2023).

What all share (type): toxicity, cell-based
Series [1] deals with HEK-293T. Nature of the series: Incucyte cell viability with HEK293T. The following applies: human, 10 µM, compound concentration 10 uM.
Series [2] concerns Fibroblast. Nature of the series: Incucyte cell viability with human fibroblast. The following applies: 10 µM, compound concentration 10 uM.
Series [3] concerns U2OS. Put plainly: Incucyte cell viability with U2OS. The following applies: human, 10 µM, compound concentration 10 uM.
Note: unitless GR value; below 1 slowed growth and below 0 cell loss.

Take `Oc1c(CN2CCCC2)cc(COCc2ccccc2)c2cccnc12`: the “Growth Rate” value is recorded as -0.99 in series [1] (0 h, replicate number 2); 0.34 in series [1] (6 h, replicate number 1); 0.05 in series [1] (6 h, replicate number 2); -0.04 in series [1] (12 h, replicate number 1); -0.05 in series [1] (12 h, replicate number 2); -0.09 in series [1] (18 h, replicate number 1). Moreover, the “Growth Rate” value was -0.21 in series [1] (18 h, replicate number 2); -0.18 in series [1] (24 h, replicate number 1); -0.25 in series [1] (24 h, replicate number 2); 0.87 in series [2] (0 h, replicate number 1); 0.96 in series [2] (18 h, replicate number 1); 0.83 in series [2] (24 h, replicate number 1). In addition, the “Growth Rate” value is 0.6 in series [2] (24 h, replicate number 2); 0.25 in series [3] (0 h, replicate number 1); 0.93 in series [3] (6 h, replicate number 1); 0.91 in series [3] (6 h, replicate number 2); 0.55 in series [3] (12 h, replicate number 1); 0.58 in series [3] (12 h, replicate number 2). The “Growth Rate” value in series [3] (18 h, replicate number 1) came out at 0.93; in series [3] (18 h, replicate number 2), 0.56; in series [3] (24 h, replicate number 1) it was 0.79; in series [3] (24 h, replicate number 2) it was 0.54.
Turning to `CCCc1c(OCCCOc2ccc(OCC(=O)O)cc2)ccc(C(C)=O)c1O`, the “Growth Rate” value is -0.76 in series [1] (0 h, replicate number 2); 0.94 in series [1] (12 h, replicate number 2); 0.97 in series [1] (18 h, replicate number 2); -0.08 in series [2] (0 h, replicate number 2); 0.58 in series [2] (6 h, replicate number 1); 0.74 in series [2] (12 h, replicate number 1). Besides, the “Growth Rate” value in series [2] (12 h, replicate number 2) is recorded as 0.87; in series [2] (18 h, replicate number 1), 0.6; in series [2] (24 h, replicate number 1), 0.94; in series [3] (6 h, replicate number 1) it was 0.97; in series [3] (12 h, replicate number 1), 0.84.
On to `CN[C@@H](C)C(=O)N[C@H](C(=O)N1CCC[C@H]1C(=O)N[C@H]1c2ccccc2C[C@H]1OCC#CC#CCO[C@@H]1Cc2ccccc2[C@@H]1NC(=O)[C@@H]1CCCN1C(=O)[C@@H](NC(=O)[C@H](C)NC)C1CCCCC1)C1CCCCC1`, for which the “Growth Rate” value in series [1] (0 h, replicate number 2) is -0.94; in series [1] (6 h, replicate number 1) it was 0.13; in series [1] (6 h, replicate number 2), 0.46; in series [1] (12 h, replicate number 1), -0.41; in series [1] (12 h, replicate number 2) it was -0.22; in series [1] (18 h, replicate number 1), -0.17. Further, the “Growth Rate” value was 0.01 in series [1] (18 h, replicate number 2); -0.12 in series [1] (24 h, replicate number 1); 0.02 in series [1] (24 h, replicate number 2); 0.87 in series [2] (12 h, replicate number 1); 0.75 in series [2] (18 h, replicate number 1); 0.57 in series [2] (18 h, replicate number 2). Besides, the “Growth Rate” value in series [2] (24 h, replicate number 1) came to 0.63; in series [2] (24 h, replicate number 2), 0.43; in series [3] (0 h, replicate number 1), 0.76; in series [3] (6 h, replicate number 1) it was 0.89; in series [3] (6 h, replicate number 2), 0.83; in series [3] (12 h, replicate number 2) it was 0.86. For the same compound, the “Growth Rate” value is recorded as 0.87 in series [3] (18 h, replicate number 1); 0.86 in series [3] (18 h, replicate number 2); 0.89 in series [3] (24 h, replicate number 1).
Regarding `COc1cc(N(C)c2ccnc3ccc(C(F)(F)F)cc23)cc(OC)c1OC`, the “Growth Rate” value in series [1] (0 h, replicate number 2) is given as -1; in series [1] (6 h, replicate number 2), -0.32; in series [1] (12 h, replicate number 2) it was 0.01; in series [1] (18 h, replicate number 2), 0.27; in series [1] (24 h, replicate number 2), 0.48; in series [2] (0 h, replicate number 1), 0.97. Moreover, the “Growth Rate” value in series [2] (6 h, replicate number 1) is on record as -0.52; in series [2] (6 h, replicate number 2) it was 0.41; in series [2] (12 h, replicate number 2) it was 0.94; in series [2] (18 h, replicate number 2), 0.91; in series [3] (0 h, replicate number 2), 0.66; in series [3] (6 h, replicate number 2) it was 0.7. Further, the “Growth Rate” value in series [3] (12 h, replicate number 1) was determined as 0.9; in series [3] (12 h, replicate number 2), 0.88; in series [3] (18 h, replicate number 2), 0.92; in series [3] (24 h, replicate number 1) it was 1; in series [3] (24 h, replicate number 2) it was 0.84.
Regarding `Cc1ccc(NS(=O)(=O)c2ccc3c(c2)C2C=CCC2C(c2ccc(C(=O)O)cc2)N3)cc1C` (stereo not given), the “Growth Rate” value in series [1] (0 h, replicate number 2) is listed as -0.87; in series [1] (12 h, replicate number 1) it was 0.89; in series [1] (18 h, replicate number 1), 0.79; in series [2] (0 h, replicate number 2), 0.82; in series [2] (6 h, replicate number 1), -0.66; in series [2] (6 h, replicate number 2) it was 0.01. Besides, the “Growth Rate” value in series [2] (12 h, replicate number 1) was 0.86; in series [2] (12 h, replicate number 2), 0.36; in series [2] (18 h, replicate number 1) it was 0.83; in series [2] (24 h, replicate number 1) it was 0.65; in series [2] (24 h, replicate number 2) it was 0.72; in series [3] (0 h, replicate number 1), 0.88. The “Growth Rate” value in series [3] (6 h, replicate number 1) was 0.79; in series [3] (12 h, replicate number 1), 0.82; in series [3] (18 h, replicate number 1), 0.87; in series [3] (18 h, replicate number 2) it was 0.99; in series [3] (24 h, replicate number 1), 0.93; in series [3] (24 h, replicate number 2), 0.91.
For the compound `CCC(=O)Nc1cc(Nc2cc(NC3CC3)n3ncc(C#N)c3n2)ccc1C`, the “Growth Rate” value in series [1] (0 h, replicate number 2) is listed as -0.72; in series [1] (6 h, replicate number 1), 0.87; in series [1] (6 h, replicate number 2) it was 0.94; in series [1] (12 h, replicate number 1), 0.79; in series [1] (12 h, replicate number 2), 0.59; in series [1] (18 h, replicate number 1) it was 0.79. The “Growth Rate” value in series [1] (18 h, replicate number 2) stood at 0.83; in series [1] (24 h, replicate number 1), 0.81; in series [1] (24 h, replicate number 2), 0.83; in series [2] (6 h, replicate number 1) it was 0.76; in series [2] (6 h, replicate number 2) it was 0.41; in series [2] (12 h, replicate number 1) it was 0.46. For the same compound, the “Growth Rate” value in series [2] (12 h, replicate number 2) is listed as 0.67; in series [2] (18 h, replicate number 1), 0.33; in series [2] (18 h, replicate number 2), 0.61; in series [2] (24 h, replicate number 1) it was 0.48; in series [2] (24 h, replicate number 2) it was 0.85; in series [3] (0 h, replicate number 1), -1. Further, the “Growth Rate” value in series [3] (6 h, replicate number 1) came out at 0.24; in series [3] (6 h, replicate number 2) it was 0.61; in series [3] (12 h, replicate number 1), 0.12; in series [3] (12 h, replicate number 2), 0.52; in series [3] (18 h, replicate number 1), 0.39; in series [3] (18 h, replicate number 2), 0.54. Moreover, the “Growth Rate” value in series [3] (24 h, replicate number 1) was 0.44; in series [3] (24 h, replicate number 2) it was 0.53.
Take `CC1CN(CC(=O)N2CC(C)(C)c3nc(CO)c(Cc4ccc(F)cc4)cc32)C(CN2CCOCC2C)CN1` (stereo not given): the “Growth Rate” value in series [1] (0 h, replicate number 2) is -0.63; in series [1] (6 h, replicate number 1) it was 0.63; in series [1] (6 h, replicate number 2), 0.88; in series [1] (12 h, replicate number 2), 0.96; in series [1] (24 h, replicate number 2), 0.89; in series [2] (6 h, replicate number 1), 0.63. The “Growth Rate” value in series [2] (6 h, replicate number 2) was 0.4; in series [2] (12 h, replicate number 2) it was 0.94; in series [2] (18 h, replicate number 1) it was 0.98; in series [2] (18 h, replicate number 2) it was 0.94; in series [2] (24 h, replicate number 2) it was 0.9; in series [3] (0 h, replicate number 1), -0.23.
As for `CN[C@@H](C)C(=O)N[C@H](C(=O)N1CCC[C@H]1C(=O)N[C@@H]1CCCc2ccccc21)C1CCCCC1.Cl`, the “Growth Rate” value in series [1] (0 h, replicate number 2) is listed as -0.36; in series [1] (6 h, replicate number 2) it was 0.63; in series [1] (12 h, replicate number 1) it was 0.81; in series [1] (12 h, replicate number 2), 0.9; in series [1] (18 h, replicate number 2) it was 0.87; in series [1] (24 h, replicate number 2), 0.88. Moreover, the “Growth Rate” value in series [2] (12 h, replicate number 1) was found to be 0.76; in series [2] (12 h, replicate number 2) it was 0.89; in series [2] (18 h, replicate number 1), 0.75; in series [2] (24 h, replicate number 1) it was 0.72; in series [3] (0 h, replicate number 1), 0.24; in series [3] (6 h, replicate number 1), 0.97. The “Growth Rate” value in series [3] (12 h, replicate number 1) is recorded as 0.89.
